Assays:
Type in all cases: cell-based, human
BE(2)-C cells [1] = test: Flow cytometric analysis of LysoTracker DND-99 staining (lysosomal accumulation); conditions: 24 h
Description: Six days after siRNA transfection or 24 h after treatment with HDAC or lysosomal inhibitors, cells were stained for 1 h with 50 nM LysoTracker® Red DND-99 in medium under standard cell culture conditions. Cells were washed with ice-cold RPMI w/o phenol-red and detached using Trypsin/EDTA for 3 minutes at 37 °C. Cells were centrifuged, resuspended in RPMI w/o phenol red and LysoTracker® Red fluorescence was quantified on a BD FACSCanto II platform using the PE filter setting.

HDAC6 = test: Western blot analysis of tubulin K40 acetylation as a marker for HDAC6 inhibition; conditions: 24 h; bufexamac 30 µM, tubastatin A 7.5 µM, tubacin 7.5 µM
Description: Western blot analysis was performed as previously described. The following antibodies were used: anti-HDAC6 (sc-11420, Santa Cruz), anti-HDAC10 (H3413, Sigma), anti-acetylated histone H3 (06-911, Merck Millipore), anti-histone H3 (9715, Cell Signaling Technology, Cambridge UK), anti-LAMP-1 (H4A3, DHSB, Iowa City, IA, USA), anti-LAMP-2 (H4B4; Santa Cruz Biotechnology), anti-acetylated tubulin (6–11B-1; Sigma), anti-tubulin (2148, Cell Signaling Technology), anti P-glycoprotein (13978 S, Cell Signaling Technology) and anti-β-actin (clone AC-15; Sigma).

BE(2)-C cells [2] = test: Flow cytometric quantification of intracellular doxorubicin accumulation, BE(2)-C
Description: (§1) For flow cytometric quantification of intracellular doxorubicin after HDAC6/10 inhibition, BE(2)-C, SK-N-AS, IMR-32, HAP1 wild type and HDAC10 knockout cells were seeded in 6-well dishes at a density of 1.5 ∗ 10^5 cells/well (BE(2)-C and SK-N-AS, HAP1) and 3 ∗ 10^5 cells/well (IMR-32). Cells were treated with 25 ng/ml, 50 ng/ml, 100 ng/ml or 1 µg/ml doxorubicin, respectively, for 3–48 h (see respective figure legend). Where indicated, cells were co-treated with HDAC6/10 or lysosomal inhibitors. In case of co-treatment with vacuolin-1, vacuolin-1 was directly added to cells under doxorubicin treatment 1 h or 24 h prior to analysis. Flow cytometric quantification of intracellular doxorubicin after HDAC6, HDAC10 or P-glycoprotein knockdown in BE(2)-C cells was performed 5 days (P-glycoprotein) or 6 days (HDAC6/10) after transfection with siRNA. To that end, cells were seeded 3–4 days after transfection into 6-well dishes at 1.5 ∗ 10^5 cells per well and treated with 100 ng/ml doxorubicin +/− HDAC6/10 and lysosomal inhibitors for the last 24 h. After doxorubicin treatment, BE(2)-C, SK-N-AS, IMR-32 and HAP1 cells were washed with ice-cold RPMI w/o phenol-red and detached using Trypsin/EDTA for 3 minutes at 37 °C. Cells were centrifuged, resuspended in RPMI w/o phenol red and doxorubicin fluorescence was quantified on a BD FACSCanto II platform using the PE filter setting.

SK-N-AS cells = test: Flow cytometric quantification of intracellular doxorubicin accumulation, SK-N-AS; conditions: 100 ng/ml doxorubicin +/− 7.5 µM tubastatin A, 48 h
Description: as §1

BE(2)-C cells [3] = test: Flow cytometric analysis of cell surface LAMP-1 (lysosomal exocytosis); conditions: 6 h tubastatin A 7.5 µM, bufexamac 30 µM, tubacin 7.5 µM, vacuolin-1 10 µM 1 h
Description: (§2) Cells were dissociated from dishes using non-enzymatic cell dissociation reagent for five minutes. Cells were counted using a ViCell XR automatic cell counter (Beckmann Coulter) and 2.5 ∗ 10^5 cells were transferred into a pre-cooled 96-well round bottom plate (TPP92097). Cells were stained for 1.5–2 hours on ice with primary anti P-gp (Biozol ABA-AB00143-1.1), LAMP-1 (H4A3, DHSB) antibody or isotype control (DLN-05794, Dianova, […]) and for 1 hour with APC-labeled secondary antibody (Dianova 115-136-068). Cells were washed three times in FACS buffer (5% FBS in PBS) after each antibody incubation step. For evaluation of DNA double-strand breaks, cells were detached from dishes using trypsin, counted using a ViCell XR automatic cell counter (Beckmann Coulter) and transferred into a pre-cooled 96-well round bottom plate (4 ∗ 10^6 cells/well). Cells were fixed and permeabilized using the eBioscience^TM Foxp3/Transcription Factor Staining Buffer Set (Thermo Fisher Scientific). Cells were stained for 1.5 h with Phospho-Histone H2A.X (S139) primary antibody (CST #9718) and for 1 h in Alexa-488-labeled secondary antibody (ThermoFisher A-11008). Cells were washed three times in 1× permeabilization buffer after each antibody incubation step and fluorescence was quantified on a BD FACSCanto II platform.

P-glycoprotein = test: Flow cytometric quantification of cell surface P-gp expression; conditions: BE(2)-C; 6 h tubastatin A 7.5 µM; vacuolin-1 10 µM 1 h
Description: as §2

BE(2)-C cells [4] = test: Pulse-chase analysis of doxorubicin secretion/retention; conditions: 12 h pre-treatment, 1 µg/ml doxorubicin 3 h, washout, relative to t0
Description: To test whether HDAC10 inhibition prolonged the retention of doxorubicin, we used a pulse-chase approach in which BE(2)-C cells were pre-treated over night with HDAC6/10 inhibitors and then loaded with high concentrations of doxorubicin for 3 h (1 µg/ml). After doxorubicin washout, HDAC6/10 or HDAC6 inhibitors were re-added (t0), and intracellular doxorubicin fluorescence was measured at t0, as well as 3 h (t3h) and 6 h (t6h) after doxorubicin removal (Fig. 5h–k). […] In summary, secretion of doxorubicin was slowed down in case of HDAC6/10 inhibition but not by specific HDAC6 inhibition alone.
as §1

BE(2)-C cells [5] = test: Cell viability, automated trypan blue exclusion, BE(2)-C
Description: Adherent cell lines were trypsinized and cells were pooled with corresponding supernatant, centrifuged and resuspended in 1.5 ml cell culture media. Cell viability was measured by automated trypan blue staining with the Vi-Cell XR Cell Viability Analyzer from Beckman Coulter (Krefeld, Germany).

Q: Which “lysosomal accumulation (LysoTracker staining)” value (BE(2)-C cells [1]; bufexamac 30 µM, tubastatin A 7.5 µM, tubacin 7.5 µM, VPA 1 mM, vacuolin-1 10 µM) does the source give for `CN1CCc2c(c3ccccc3n2Cc2ccc(C(=O)NO)cc2)C1` [tubastatin A] here?
A: caused lysosomal accumulation

Q: What about the “lysosomal accumulation on combination with vacuolin-1 compared to vacuolin-1 alone” value (BE(2)-C cells [1]; tubastatin A 7.5 µM + vacuolin-1 10 µM) of the same molecule?
A: no additional lysosomal accumulation

Q: What about the “HDAC6 inhibition (tubulin K40 acetylation)” value (HDAC6) of the same molecule?
A: substantially inhibited HDAC6

Q: And the “intracellular doxorubicin after co-treatment” value (BE(2)-C cells [2]; 100 ng/ml doxorubicin, 48 h, bufexamac 30 µM, tubastatin A 7.5 µM, tubacin 7.5 µM)?
A: increased intracellular doxorubicin

Q: What about the “intracellular doxorubicin levels, short-term” value (BE(2)-C cells [2]; 12 h pre-treatment with inhibitor, then 1 µg/ml doxorubicin for 3 h) of the same molecule?
A: increased intracellular doxorubicin levels

Q: And the “doxorubicin accumulation, SK-N-AS” value (SK-N-AS cells)?
A: increased accumulation of doxorubicin

Q: What about the “cell surface LAMP-1 levels” value (BE(2)-C cells [3]) of the same molecule?
A: reduced surface LAMP-1 levels

Q: What about the “cell surface P-gp levels” value (P-glycoprotein) of the same molecule?
A: slightly increased surface P-gp levels

Q: And the “retention of intracellular doxorubicin 3 h and 6 h after doxorubicin removal” value (BE(2)-C cells [4])?
A: retained higher levels of intracellular doxorubicin

Q: What about the “viability of BE(2)-C cells, single treatment” value (BE(2)-C cells [5]; 100 ng/ml doxorubicin, 7.5 µM tubastatin A or vacuolin-1 alone) of the same molecule?
A: did not substantially reduce cell viability

Q: What about the “viability of BE(2)-C cells, combination with 100 ng/ml doxorubicin, 24 h or 48 h” value (BE(2)-C cells [5]; 7.5 µM tubastatin A) of the same molecule?
A: strongly reduced viability

From article PMC6030077, “Dual role of HDAC10 in lysosomal exocytosis and DNA repair promotes neuroblastoma chemoresistance” (Scientific Reports, 2018)
